# Assay results from patent publication US20220409573A1, “Hippocampus Regeneration And Memory Recovery” (INNOBIOSCIENCE, LLC, priority 2021, published 2022).
# Entries after “also recorded” stand apart in the source; their conditions may differ. Read-outs that look alike come from different tables or passages of the source.
# Tests used:
# [1] = tested on: synaptic proteins in hippocampus and cortex of APPswe/PS-1 mice; test: Immunoblotting of synaptic proteins in treated APPswe/PS-1 mice; format: in vivo
# [2] = tested on: APPswe/PS-1 double transgenic mice; test: Memory flexibility test (modified Morris Water Maze); format: in vivo; conditions: 7-month-old APPswe/PS-1 mice, 2.0 mg/kg IP three times per week, four weeks, vs Tg control
# [3] = tested on: CA3-CA1 connections in hippocampal slices; test: Electrophysiology in Wt hippocampal slices (fEPSP, PPF, LTP, LTD); format: cell-based, mice
# Protocol: Slice Preparation and Electrophysiology. […] Slices were transferred to an experimental chamber (2 ml), superfused (3 ml/min, at 20-22° C.) with gassed ACSF and visualized by trans-illumination with a binocular microscope (MSZ-10, Nikon, Melville, N.Y.). To evoke field excitatory postsynaptic potentials (fEPSPs), we stimulate with bipolar concentric electrodes (Platinum/Iridium, 125 μm OD diameter, FHC Inc., Bowdoin, Me.) generated by a stimulator (Axon 700b, Molecular Devices, Sunnyvale, Calif.) and connected to an isolation unit (Isoflex, AMPI, Jerusalem, Israel) . The stimulation was in the Stratum Radiatum within 100-200 μm from the recording site. The paired pulse facilitation index was calculated by ((R2−R1)/R1), where R1 and R2 were the peak amplitudes of the first and second fEPSP respectively. To generate LTP we used Theta Burst Stimulation (TBS) consisting of 5 trains of stimulus with an inter-train interval of 20 s. Each train consisted of 10 bursts at 5 Hz and each burst having 4 pulses at 100 Hz. To generate LTD we used Low Frequency Stimulation (LFS) consisting in 900 paired pulses at 1 Hz. Recordings were filtered at 2.0-3.0 kHz, sampled at 4.0 kHz using an A/D converter, and stored with pClamp 10 (Molecular Devices). Evoked postsynaptic responses were analyzed off-line, using an analysis software (pClampfit, Molecular Devices), which allowed visual detection of events, computing only those events that exceeded and arbitrary threshold.
# HEK293T cells = test: TOP/FOP flash luciferase reporter assay; format: cell-based
# Protocol: Luciferase Assay. 150,000 HEK293T cells were seeded in triplicate per condition and kept for 24 hours at 37° C. with 5% CO2. The cultures were transfected with TOPflash or FOPflash (400 ng), which are firefly-luciferase reporter DNA constructs (Milipore), using LipofectAMINE 2000 (Invitrogen). To control for transfection pRL-TK (10 ng) was included in all transfections. […] Values were normalized by the renilla value from the same well. To statistically compare treatments ANOVA was used.
# [4] = tested on: AT8-positive neurons in APPswe/PS-1 mice; test: AT8 immunohistochemistry in treated APPswe/PS-1 mice; format: in vivo
# [5] = tested on: CA3-CA1 transmission in the hippocampus of APPswe/PS-1 mice; test: LTP by TBS in hippocampal CA1 slices from treated APPswe/PS-1 mice; format: in vivo; conditions: slices from the two sets (7- and 12-month-old) of treated APPswe/PS-1 mice
# [6] = target: T1, Immunoprecipitated GSK-3β from hippocampus of wild-type mice (Mus musculus, UniProt Q9WV60); test: Luminometric GSK-3β activity assay; format: biochemical
# T1 construct: the hippocampus of two month-old wild-type mice were lysed in immunoprecipitation buffer; from tissue; host or cells: hippocampus of two-month-old wild-type mice, immunoprecipitated with anti-GSK-3β antibody (Santa Cruz Biotechnology) on protein G beads
# Protocol: Immunoprecipitation. The immunoprecipitation was performed as previously described (Garrido et al, 2002). Briefly, the hippocampus of two month-old wild-type mice were lysed in immunoprecipitation buffer (25 mM HEPES pH 7.4, 125 mM NaCl, 25 mM NaF, 1 mM EDTA, 1 mM EGTA, 1% NP-40) including phosphatase inhibitors (1 mM NaVO3 and 200 nM okadaic acid) and the protease inhibitor cocktail described above. 200 μg of total proteins from lysate were precleared by using protein G-Sepharose beads (Santa Cruz Biotechnology) for 1 h at 4° C. and then were incubated with anti-GSK-3β antibody (Santa Cruz Biotechnology) and new protein G beads for 4 h at 4° C. The immunocomplexes were finally pelleted and washed three times with cold immunoprecipitation buffer.
# GSK-3β activity assay. IC50 of ANDRO was determined by a luminometric GSK-3β activity assay. […] Briefly, ANDRO was tested at different concentrations and diluted in kinase buffer containing final concentrations of: 40 mM Tris pH 7.5; 20 mM MgCl2; 0,1 mg/ml BSA. Diluted ANDRO was added to 25 μM pGS-2 peptide substrate (Millipore, Billerica, USA), immunoprecipited GSK-3β and 10 μM ATP (Cell Signaling, Boston, USA) to a total assay volume of 50 μl. The enzymatic reaction was stopped after 10 min of incubation to room temperature by adding 50 μl Kinase Glo (Promega, Madison, USA). The luminometric signal was allowed to stabilize for 10 min and the measured with a Luminometer TURNER DESIGNS model TD-2020.
# Immunoprecipitated GSK-3β from hippocampus of wild-type mice was incubated with ATP and pGS-2 peptide substrate for 5 min, then the reaction was stopped and the kinase activity was determined in a luminometer.
# Wnt target genes = test: PCR array of Wnt target genes in hippocampal neurons; format: cell-based, rat
# Protocol: Primary culture of rat hippocampal neurons. […] PCR-ARRAY. RNA from hippocampal neurons was extracted using Trizol. Quantification and purity of RNA preparations were checked by absorbance using Nanodrop ND-2000. Only preparations with a 260/280 nm ratio≥1.8, a 260/230 nm ratio ≥1,7 and no sign of RNA degradations, verified by agarose gel electrophoresis with Gel Red TM were used. Genomic DNA was degraded. Using RT2First-Strand cDNA Synthesis kit (SuperArray), 1 μg total RNA was reverse transcribed and then real-time PCR was performed by adding cDNA directly to PCR Master Mix, containing SYBR Green and ROX. The mixtures were then aliquoted into a 96-well PCR array plates, which profiles the expression of 84 Wnt target genes from rat. The PCR was run on ABI StepOnePlus, with 1 cycle of 10 min at 95° C. followed by 40 cycles of 15 s at 95° C. and 1 min at 60° C.
# Treatment of neuronal cultures. Primary hippocampal cultures of neurons 14 DIV were washed twice in neurobasal medium and maintained for 1 hour.
# [7] = 9 h treatment, of the 86 genes analyzed
# T1 sequence (Q9WV60 whole entry): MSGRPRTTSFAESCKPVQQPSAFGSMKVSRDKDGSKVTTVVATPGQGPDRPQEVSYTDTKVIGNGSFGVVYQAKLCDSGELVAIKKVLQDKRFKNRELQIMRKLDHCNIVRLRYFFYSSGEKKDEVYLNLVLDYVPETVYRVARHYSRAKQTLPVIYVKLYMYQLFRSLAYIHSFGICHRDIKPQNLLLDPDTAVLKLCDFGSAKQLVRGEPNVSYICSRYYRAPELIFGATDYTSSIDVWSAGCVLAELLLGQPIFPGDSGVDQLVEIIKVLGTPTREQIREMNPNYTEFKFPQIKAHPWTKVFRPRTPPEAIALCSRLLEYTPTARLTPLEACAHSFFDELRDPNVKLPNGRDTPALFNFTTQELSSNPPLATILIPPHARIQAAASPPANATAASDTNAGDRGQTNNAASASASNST
structure (smiles),measurement,setting,value
"C=C1CC[C@@H]2C(C)(CO)[C@H](O)CC[C@@]2(C)C1C/C=C1/C(=O)OC[C@H]1O (stereo in doubt) [ANDRO, 3-(2-(Decahydro-6-hydroxy-5-(hydroxymethyl)-5,8a-dimethyl-2-methylenenaphthyl)ethylidene)dihydro-4-hydroxyfuran-2(3H)-one]",PSD-95 and GluA2 levels,[1]; mature (12-month-old) Tg mice,increase of PSD-95 and GluA2 levels
same,total levels of pre-synaptic proteins SYP and VAMP,[1]; young APPswe/PS-1 mice,unaltered
same,"levels of post-synaptic proteins (Shank, GluN2B, GluA2, PSD-95)","[1]; young APPswe/PS-1 mice, hippocampus and cortex",significantly recovers the post-synaptic proteins
same,number of trial to criterion of learning,[2],reduction in the number of trial to criterion of learning
same,fEPSP amplitude (basal synaptic transmission),"[3]; ANDRO (5 μM), 30 min, Wt slices",increased the fEPSP amplitude
same,paired pulse facilitation (PPF) ratio,[3]; Wt slices,does not increase PPF ratio
same,LTP induction or maintenance,"[3]; Wt slices in presence of ANDRO, TBS",do not observed alteration in the LTP induction or maintenance
same,induction of LTD (fEPSP slope after LFS),"[3]; hippocampal slices, 6-BIO 10 nM",LTD was inhibited
same,TOPflash reporter activity,"HEK293T cells; ANDRO 10 μM or 6-BIO 10 nM, 24 h",significant increase
same,increase of luciferase reporter over control,"HEK293T cells; TOPflash, HEK293T",4 fold
same,number of AT8-positive neurons next to amyloid deposits,"[4]; 6 month-old APPswe/PS-1 mice, circular area surrounding plaques",clear decrease in the number of AT8-positive neurons
same,total AT8-positive cells outside the circular area around the plaques,[4]; hippocampus,decrease in the number of these cells
same,LTP induction,[5],recovery in the capacity to induce a LTP; also recorded: have the property to induce a LTP that is maintained for 1 h
same,IC50,"[6]; different concentrations of ATP, read-out: IC50 using different concentrations of ATP",~5.58 µM
same,IC50 with increased substrate concentration,[6]; different concentrations of the substrate,increase in the IC50
same,IC50,"[6]; preincubation 10 min, 10 μM ATP, 25 μM pGS-2 peptide substrate, read-out: IC50 of GSK-3β activity",5.58 µM
same,Cdh-1 gene expression,Wnt target genes,differential expression
same,number of Wnt target genes specifically modulated,Wnt target genes; [7],3 genes
same,number of changed Wnt target genes shared by ANDRO and 6-BIO,Wnt target genes; [7],4 genes
same,Ets2 gene expression,Wnt target genes; after Bonferroni correction,down-regulation of Ets2 gene
